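Cells were grown in 96-well plates and exposed to each compound for 48 hours at five concentrations; endpoints were interpolated linearly between bracketing concentrations, or set to the highest concentration if not reached. Here, GI50 denotes the concentration required for 50% inhibition of growth.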 Activity calls are given as the source filed them. Cut-off read from the data, not from the text of the source: active = GI50 up to about 1.1 µM and inactive = higher.
Legend:
Assay in all cases: inhibition of tumour cell growth, NCI panel, 48 h
[1] = tested on: 786-0
[2] = tested on: A549
[3] = tested on: ACHN
[4] = tested on: BT-549
[5] = tested on: CAKI-1
[6] = tested on: CCRF-CEM
[7] = tested on: COLO 205
[8] = tested on: DU-145
[9] = tested on: EKVX
[10] = tested on: HCC 2998
[11] = tested on: HCT-116
[12] = tested on: HCT-15
[13] = tested on: HOP-62
[14] = tested on: HT-29
[15] = tested on: Hs-578T
[16] = tested on: IGROV-1
[17] = tested on: K562
[18] = tested on: KM12
[19] = tested on: M14
[20] = tested on: MCF7
[21] = tested on: MDA-MB-231
[22] = tested on: MDA-MB-435
[23] = tested on: MDA-N
[24] = tested on: MOLT-4
[25] = tested on: Malme-3M
[26] = tested on: NCI-H226
[27] = tested on: NCI-H23
[28] = tested on: NCI-H460
[29] = tested on: NCI/ADR-RES
[30] = tested on: OVCAR-3
[31] = tested on: OVCAR-4
[32] = tested on: OVCAR-5
[33] = tested on: OVCAR-8
[34] = tested on: PC-3
[35] = tested on: RPMI-8226
[36] = tested on: RXF 393
[37] = tested on: SF-268
[38] = tested on: SF-295
[39] = tested on: SK-MEL-28
[40] = tested on: SK-MEL-2
[41] = tested on: SK-MEL-5
[42] = tested on: SK-OV-3
[43] = tested on: SN12C
[44] = tested on: SNB-19
[45] = tested on: SNB-75
[46] = tested on: SW-620
[47] = tested on: T47D
[48] = tested on: TK-10
[49] = tested on: U-251
[50] = tested on: UACC-257
[51] = tested on: UACC-62
[52] = tested on: UO-31

CCOC(=O)c1nnsc1NC(=O)Nc1ccc(Cc2ccc(NC(=O)Nc3snnc3C(=O)OCC)cc2)cc1
GI50 [1]: 18.2 µM (inactive)
GI50 [2]: 46.1 µM (inactive)
GI50 [3]: > 100 µM (inactive)
GI50 [4]: > 100 µM (inactive)
GI50 [5]: 41 µM (inactive)
GI50 [6]: > 100 µM (inactive)
GI50 [7]: > 100 µM (inactive)
GI50 [8]: 32.8 µM (inactive)
GI50 [9]: 85.3 µM (inactive)
GI50 [10]: > 100 µM (inactive)
GI50 [11]: 30.8 µM (inactive)
GI50 [12]: > 100 µM
GI50 [13]: 32.7 µM (inactive)
GI50 [14]: 61 µM (inactive)
GI50 [15]: 69.5 µM (inactive)
GI50 [16]: 28.2 µM (inactive)
GI50 [17]: > 100 µM (inactive)
GI50 [18]: 55.1 µM (inactive)
GI50 [19]: > 100 µM (inactive)
GI50 [20]: 71.8 µM (inactive)
GI50 [21]: 28.2 µM (inactive)
GI50 [22]: 93.1 µM (inactive)
GI50 [23]: 69.3 µM (inactive)
GI50 [24]: > 100 µM (inactive)
GI50 [25]: 37.2 µM (inactive)
GI50 [26]: 31.9 µM (inactive)
GI50 [27]: 43.6 µM (inactive)
GI50 [28]: 25.6 µM (inactive)
GI50 [29]: > 100 µM (inactive)
GI50 [30]: > 100 µM (inactive)
GI50 [31]: 35.6 µM (inactive)
GI50 [32]: > 100 µM (inactive)
GI50 [33]: 27.5 µM (inactive)
GI50 [34]: 66.4 µM (inactive)
GI50 [35]: > 100 µM (inactive)
GI50 [36]: 18.2 µM (inactive)
GI50 [37]: > 100 µM (inactive)
GI50 [38]: 70 µM (inactive)
GI50 [39]: > 100 µM (inactive)
GI50 [40]: > 100 µM (inactive)
GI50 [41]: 29.6 µM (inactive)
GI50 [42]: 21.8 µM (inactive)
GI50 [43]: 28.3 µM (inactive)
GI50 [44]: 39.1 µM (inactive)
GI50 [45]: 88.5 µM (inactive)
GI50 [46]: > 100 µM (inactive)
GI50 [47]: 45.8 µM (inactive)
GI50 [48]: > 100 µM (inactive)
GI50 [49]: 31.3 µM (inactive)
GI50 [50]: > 100 µM (inactive)
GI50 [51]: 76 µM (inactive)
GI50 [52]: > 100 µM (inactive)
